Reference: article PMC12301304 (Frontiers in Pharmacology, 2025)

Legend:
CYP2e1 = CYP2e1 (Rattus norvegicus, UniProt P05182); conditions: in vivo
Experimental: The effect of the Zhicaowu–Hezi combination on CYP450 enzymes in rats was evaluated by examining the pharmacokinetics of theophylline (CYP1a2), metoprolol (CYP2d2), bupropion (CYP2b1), omeprazole (CYP2c13), chlorzoxazone (CYP2e1), testosterone (CYP3a1), and diclofenac (CYP2c11).
The collected blood was placed in sodium heparin-treated centrifuge tubes and centrifuged at 4°C for 10 min at 3,000 RPM. […] After 10 min of sedimentation, the supernatant was extracted through a 0.22-μm microporous membrane, 20 μL of which was injected into HPLC. The pharmacokinetic parameters of each probe drug were calculated using the non-atrial compartment model in Drug and Statistics software (DAS, 3.0; Shanghai, China).

rat liver = assay type: in vivo; conditions: rats after final administration, H&E, Figure 7
Experimental: After the final administration, all rats were euthanized, and blood and liver samples were collected. The levels of biochemical indicators ALT, AST and ALP in the blood were detected according to the kit instruction. The liver histopathology was analyzed by H&E staining. Briefly, liver tissues were fixed in 10% paraformaldehyde (for over 24 h, 4°C), paraffin-embedded, and sectioned into 5-µm slices). […]

CYP1a2 = target: T1, CYP1a2 (Rattus norvegicus, UniProt P04799); design: from tissue; host or cells: live male Sprague-Dawley rats (whole animal, mainly liver); conditions: in vivo
T1 sequence (P04799 1-513): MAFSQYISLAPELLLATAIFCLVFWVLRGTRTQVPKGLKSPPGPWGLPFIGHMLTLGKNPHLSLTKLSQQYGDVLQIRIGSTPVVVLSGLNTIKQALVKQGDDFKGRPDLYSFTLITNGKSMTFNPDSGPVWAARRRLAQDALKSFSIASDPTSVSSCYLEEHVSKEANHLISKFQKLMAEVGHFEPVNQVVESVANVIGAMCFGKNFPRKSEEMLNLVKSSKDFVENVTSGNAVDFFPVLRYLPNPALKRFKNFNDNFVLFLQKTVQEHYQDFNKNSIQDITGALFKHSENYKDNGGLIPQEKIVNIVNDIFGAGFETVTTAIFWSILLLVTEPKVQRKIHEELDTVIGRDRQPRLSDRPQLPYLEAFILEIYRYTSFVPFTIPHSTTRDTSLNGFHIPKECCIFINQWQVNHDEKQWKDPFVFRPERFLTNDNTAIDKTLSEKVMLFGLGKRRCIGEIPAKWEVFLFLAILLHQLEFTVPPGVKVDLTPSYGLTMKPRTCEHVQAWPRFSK

CYP2d2 = target: T2, CYP2d2 (Rattus norvegicus, UniProt P10634); design: from tissue; host or cells: live male Sprague-Dawley rats (whole animal, mainly liver); conditions: in vivo
T2 sequence (P10634 1-500): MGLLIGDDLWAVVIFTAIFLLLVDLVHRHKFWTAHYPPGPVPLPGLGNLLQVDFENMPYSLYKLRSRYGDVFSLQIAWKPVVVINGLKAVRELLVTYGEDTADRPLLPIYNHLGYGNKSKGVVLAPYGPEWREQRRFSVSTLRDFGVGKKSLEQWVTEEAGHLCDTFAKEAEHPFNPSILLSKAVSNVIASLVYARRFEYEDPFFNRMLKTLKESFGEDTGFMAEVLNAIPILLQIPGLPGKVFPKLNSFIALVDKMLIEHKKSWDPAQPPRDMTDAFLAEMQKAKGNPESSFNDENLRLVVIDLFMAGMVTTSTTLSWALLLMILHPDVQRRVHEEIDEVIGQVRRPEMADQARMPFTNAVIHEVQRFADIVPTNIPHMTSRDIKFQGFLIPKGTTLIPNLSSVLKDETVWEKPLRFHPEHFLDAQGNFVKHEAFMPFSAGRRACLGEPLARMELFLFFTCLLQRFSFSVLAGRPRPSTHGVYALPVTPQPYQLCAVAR

CYP2c13 = target: T3, CYP2c13 (Rattus norvegicus, UniProt P20814); design: from tissue; host or cells: live male Sprague-Dawley rats (whole animal, mainly liver); conditions: in vivo
T3 sequence (P20814 1-490): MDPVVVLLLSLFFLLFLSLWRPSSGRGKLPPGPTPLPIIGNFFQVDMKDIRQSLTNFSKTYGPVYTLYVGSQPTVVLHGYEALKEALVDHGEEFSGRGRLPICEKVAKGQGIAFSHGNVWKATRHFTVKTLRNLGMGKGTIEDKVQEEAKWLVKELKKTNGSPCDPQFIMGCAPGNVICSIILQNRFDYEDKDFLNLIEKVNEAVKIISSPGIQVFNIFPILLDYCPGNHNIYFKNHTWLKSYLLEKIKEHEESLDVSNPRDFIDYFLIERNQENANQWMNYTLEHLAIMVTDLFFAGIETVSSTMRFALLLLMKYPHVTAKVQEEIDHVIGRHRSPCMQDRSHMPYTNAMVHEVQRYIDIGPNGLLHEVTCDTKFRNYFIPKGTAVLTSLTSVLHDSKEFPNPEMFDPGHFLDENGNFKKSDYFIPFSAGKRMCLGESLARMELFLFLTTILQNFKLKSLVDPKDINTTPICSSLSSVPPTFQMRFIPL

Sequence of CYP2e1 (P05182 whole entry): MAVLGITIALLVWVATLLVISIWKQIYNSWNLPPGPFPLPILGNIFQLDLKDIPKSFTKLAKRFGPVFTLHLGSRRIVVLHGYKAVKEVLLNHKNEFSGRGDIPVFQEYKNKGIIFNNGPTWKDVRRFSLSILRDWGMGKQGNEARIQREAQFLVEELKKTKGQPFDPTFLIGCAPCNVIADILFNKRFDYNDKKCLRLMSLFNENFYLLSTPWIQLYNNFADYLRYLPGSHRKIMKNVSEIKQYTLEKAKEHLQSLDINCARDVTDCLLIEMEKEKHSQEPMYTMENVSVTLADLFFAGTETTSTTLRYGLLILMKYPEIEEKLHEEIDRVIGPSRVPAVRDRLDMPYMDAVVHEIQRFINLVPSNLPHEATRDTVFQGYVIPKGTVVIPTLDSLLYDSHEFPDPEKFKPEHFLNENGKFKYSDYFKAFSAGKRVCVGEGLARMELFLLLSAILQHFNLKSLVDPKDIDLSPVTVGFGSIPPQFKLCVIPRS

CCC1(c2ccccc2)C(=O)NC(=O)NC1=O [P, phenobarbital sodium]
chlorzoxazone AUC(0-t) (CYP2e1): 32754 ± 4037 ng·h/mL
chlorzoxazone AUC(0-∞) (CYP2e1): 47632 ± 6051 ng·h/mL
chlorzoxazone CLz/F (CYP2e1): 13.4061 ± 1.1103 mL/min/kg
chlorzoxazone Cmax (CYP2e1): 3543 ± 431 ng/mL
chlorzoxazone t1/2 z (CYP2e1): 13.368 ± 1.308 h
liver histopathology finding (rat liver): Scattered cellular edema
theophylline AUC(0-t) (CYP1a2): 12257 ± 742 ng·h/mL
theophylline AUC(0-∞) (CYP1a2): 13565 ± 801 ng·h/mL
theophylline CLz/F (CYP1a2): 7,744.326 ± 56.253 mL/h/kg
theophylline Cmax (CYP1a2): 1138 ± 201 ng/mL
theophylline t1/2 z (CYP1a2): 2.509 ± 0.436 h
metoprolol AUC(0-t) (CYP2d2): 3511 ± 445 ng·h/mL
metoprolol AUC(0-∞) (CYP2d2): 3623 ± 461 ng·h/mL
metoprolol CLz/F (CYP2d2): 2,495.074 ± 157.841 mL/h/kg
metoprolol Cmax (CYP2d2): 312 ± 41 ng/mL
metoprolol t1/2 z (CYP2d2): 2.532 ± 0.221 h
omeprazole AUC(0-t) (CYP2c13): 3040 ± 177 ng·h/mL
omeprazole AUC(0-∞) (CYP2c13): 3187 ± 239 ng·h/mL
omeprazole CLz/F (CYP2c13): 3,028.688 ± 253.193 mL/h/kg
omeprazole Cmax (CYP2c13): 535 ± 63 ng/mL
omeprazole t1/2 z (CYP2c13): 2.761 ± 0.227 h
